“Also recorded” adds a separate entry of the source.
Tests used:
[1] = test system: APK; assay: APK IC50; type: biochemical
[2] = molecular target: MEK; assay: affinity (binding affinities) of the MEK inhibitors; details: affinity of the MEK inhibitors tested in the CCI model
[3] = test system: CCI-induced static allodynia; assay: static allodynia in CCI animals after intrathecal administration of other MEK inhibitors (Biological Example 3); type: in vivo, rat; details: for magnitude of the antiallodynic effect: intrathecal, 30µg of PD 184352 compared with 100µg of pregabalin
From the text: (§1) Animals were anaesthetised with 2% isoflurane 1:4 O2/N2O mixture maintained during surgery via a nose cone. The sciatic nerve was ligated as previously described by Bennett and Xie, 1988. Animals were placed on a homeothermic blanket for the duration of the procedure. After surgical preparation the common sciatic nerve was exposed at the middle of the thigh by blunt dissection through biceps femoris. Proximal to the sciatic trifurcation, about 7mm of nerve was freed of adhering tissue and 4 ligatures (4-0 silk) were tied loosely around it with about 1mm spacing. The incision was closed in layers and the wound treated with topical antibiotics.
(§2) PD 198306 and pregabalin were administered intrathecally in a volume of 10 µl using a 100 µl Hamilton syringe by exposing the spine of the rats under brief isoflurane anaesthesia. Injections were made into the intrathecal space between lumbar region 5-6 with a 10 mm long 27 gauge needle. Penetrations were judged successful if there was a tail flick response. The wound was sealed with an autoclip and rats appeared fully awake within 2-3 min following injection.
(§3) Mechanical hypersensitivity was measured using Semmes-Weinstein von Frey hairs (Stoelting, Illinois, U.S.A.). Animals were placed into wire mesh bottom cages allowing access to the underside of their paws. Animals were habituated to this environment prior to the start of the experiment. Mechanical hypersensitivity was tested by touching the plantar surface of the animals right hind paw with von Frey hairs in ascending order of force ( 0.7, 1.2, 1.5, 2, 3.6, 5.5, 8.5, 11.8, 15.1 and 29g) for up to 6sec. Once a withdrawal response was established, the paw was re-tested, starting with the next descending von Frey hair until no response occurred. The highest force of 29g lifted the paw as well as eliciting a response, thus represented the cut off point. The lowest amount of force required to elicit a response was recorded as the paw withdrawal threshold (PWT) in grams.
The animals and methods for developing chronic constriction injury in the rat, injecting test compounds, and evaluation of static allodynia were according to Example 2 above. […] Static allodynia was assessed with von Frey hairs, before (baseline, BL) and 0.5h, 1h and 2h after intrathecal administration of the compounds
Pregabalin was dissolved in water. All compounds were administered intrathecally in a 10µl volume.
(§4) Data were analysed using a Kruskall-Wallis ANOVA for non-parametric results, followed when significant by Mann-Whitney's t test vs vehicle group.

[4] = test system: streptozocin-induced static allodynia; assay: streptozocin-induced static allodynia, von Frey hairs, oral administration (Biological Example 1); type: in vivo, rat
Experimental: Male Sprague Dawley rats (250-300g), obtained from Bantin and Kingman, (Hull, U.K.) were housed in groups of 3. All animals were kept under a 12h light/dark cycle (lights on at 07h 00min) with food and water ad libitum. All experiments were carried out by an observer blind to drug treatments.
Diabetes was induced in rats by a single i.p. injection of streptozocin (50 mg/kg) as described previously (Courteix et al., 1993).
as §3, with “to 6 sec.” for “to 6sec.”, “of 29 g” for “of 29g”
PD 198306 [N-Cyclopropylmethoxy-3,4,5-trifluoro-2-(4-iodo-2-methylphenylamino)-benzamide] and Cl-1008 (pregabalin) were synthesized at Parke-Davis (Ann Arbor, Ml, USA). PD 198306 was suspended in cremophor:ethanol:water (1:1:8) vehicle. Pregabalin was dissolved in water. Both compounds were administered orally. Streptozocin (Aldrich, UK) was dissolved in 0.9% w/v NaCI and administered intraperitoneally. Drug administrations were made in a volume of 1 ml/kg.
The static allodynia data were analysed using a Kruskall-Wallis ANOVA for non-parametric results, followed when significant by Mann-Whitney's t test.
Static allodynia was assessed with von Frey hairs, before (baseline, BL) and 1h after oral administration of PD 198306 (30mg/kg, p.o.), vehicle (cremophor:ethanol:water, 1:1:8) or pregabalin (30mg/kg, p.o.) (test). Animals were administered again the same compounds on the following day, both in the morning and the afternoon. Static allodynia was assessed only before and 1h after the afternoon administration, in order to minimise the habituation of the animals to the testing conditions. Animals treated with pregabalin received water in the morning administration, in order to avoid the potential development of tolerance to the compound with repeated administration.

[5] = test system: streptozocin-induced static allodynia; assay: streptozocin-induced static allodynia, von Frey hairs, oral, intrathecal or intraplantar administration (Biological Example 2); type: in vivo, rat
Experimental: (§5) Male Sprague Dawley rats (250-300g), obtained from Charles River, Margate, U.K.) were housed in groups of 3-6. All animals were kept under a 12h light/dark cycle (lights on at 07h 00min) with food and water ad libitum. All experiments were carried out by an observer blind to drug treatments.
Diabetes was induced in rats by a single i.p. injection of streptozocin (50mg/kg) as described previously (Courteix et al., 1993).
as §2, §3
(§6) Static allodynia was assessed with von Frey hairs, before (baseline, BL) and 0.5h, 1h and 2h after intrathecal or intraplantar administration of PD 198306 (1-30µg, i.t.), vehicle (cremophor:ethanol:water, 1:1:8) or pregabalin (10µg, i.t). For oral administration experiments, static allodynia was assessed with von Frey hairs, before (baseline, BL) and 1h after oral administration of PD 198306 (3-30mg/kg, p.o.), vehicle (cremophor:ethanol:water, 1:1:8) or pregabalin (30mg/kg, p.o.). Animals were administered again the same compounds on the following day, both in the morning and the afternoon. Static allodynia was assessed before and 1h after the morning administration. In the afternoon static allodynia was assessed before, 1h, 2h and 3h after administration for streptozocin treated animals. CCI animals were assessed before, 1h and 2h after administration
(§7) PD 198306 and pregabalin were synthesised at Parke-Davis (Ann Arbor, Ml, USA). PD 198306 was suspended in cremophor:ethanol:water (1:1:8) vehicle. Pregabalin was dissolved in water. Both compounds were administered orally, intrathecally or intraplantar in volumes of 1ml/kg, 10µl and 100µl respectively. Streptozocin (Aldrich, UK) was dissolved in 0.9% w/v NaCl and administered intraperitoneally in a volume of 1ml/kg.
as §4

[6] = test system: CCI-induced static allodynia; assay: CCI-induced static allodynia (chronic constriction injury of the sciatic nerve), von Frey hairs (Biological Example 2); type: in vivo, rat
Experimental: as §5, §1, §2, §3, §6, §7, §4

[7] = single administration 30mg/kg p.o., 1h after administration
[8] = intrathecal, streptozocin animals

O=C(O)c1cc([N+](=O)[O-])c(Nc2ccc(I)cc2Cl)c(F)c1Nc1ccc(I)cc1Cl [2,4-bis-(2-chloro-4-iodo-phenylamino)-3-fluoro-5-nitrobenzoic acid]
IC50 [1]: 29.6 nM

COC(=O)c1cc(S(=O)(=O)N(C)C)c(F)c(F)c1Nc1ccc(I)cc1Cl [2-(2-chloro-4-iodo-phenylamino)-5-dimethylsulfamoyl-3,4-difluoro-benzoic acid methyl ester]
IC50 [1]: 222 nM

NS(=O)(=O)c1cc(C(=O)NOCC2CC2)c(Nc2ccc(I)cc2Cl)c(F)c1F [PD219622, 2-(2-chloro-4-iodo-phenylamino)-N-cyclopropylmethoxy-3,4-difluoro-5-sulfamoyl-benzamide]
IC50 [2]: 100 nM | effect on static allodynia ([3]; intrathecal 30µg): had no significant effect

O=C(NOCC1CC1)c1ccc(F)c(F)c1Nc1ccc(I)cc1Cl [PD 184352]
duration of antiallodynic effect post-injection ([3]; intrathecal 30µg): 30 min | effect on static allodynia ([3]; intrathecal 30µg): blocked the maintenance of static allodynia | magnitude of the antiallodynic effect [3]: similar

Cc1cc(I)ccc1Nc1c(C(=O)NOCC2CC2)cc(F)c(F)c1F [PD 198306, N-Cyclopropylmethoxy-3,4,5-trifluoro-2-(4-iodo-2-methylphenylamino)-benzamide]
streptozocin-induced static allodynia ([4]; 30mg/kg p.o., 1h after the third administration (administered twice more on the following day)): significantly blocked | persistence of the effects on streptozocin-induced static allodynia ([4]; 30mg/kg p.o., day after the third administration): had disappeared by the following day | streptozocin-induced static allodynia [4, 7]: had no effect | duration of block of streptozocin-induced static allodynia ([5]; 30mg/kg p.o., after the third administration): 2 h | static allodynia ([5]; intraplantar 3mg/100µl, streptozocin animals): had no effect | maintenance of static allodynia ([5]; intrathecal 30µg (highest dose), streptozocin animals): totally blocked; also recorded: significantly blocked | maintenance of static allodynia ([5]; intrathecal 1-30µg, streptozocin animals): dose-dependently blocked | duration of antiallodynic effect [5, 8]: up to 1 h | minimum effective dose (MED) [5, 8]: 3 µg | duration of antiallodynic effect ([5]; intrathecal, streptozocin animals, listed as PD198306): 1 h | streptozocin-induced static allodynia ([5]; p.o., 30mg/kg, after the third administration (3 doses over two days), 30 mg/kg): transient effect; also recorded: significantly blocked | streptozocin-induced static allodynia ([5]; single administration 3-30mg/kg p.o., 1h after administration): had no effect | CCI-induced static allodynia ([6]; 3-30mg/kg p.o., single or multiple administration): had no effect; also recorded: neither a single or multiple administration of PD 198306 (3-30mg/kg, p.o) had any effect | static allodynia ([6]; intraplantar 3mg/100µl, CCI animals): had no effect | maintenance of static allodynia ([6]; intrathecal 30µg (highest dose), CCI animals): totally blocked; also recorded: significantly blocked | maintenance of static allodynia ([6]; intrathecal 1-30µg, CCI animals): dose-dependently blocked | duration of antiallodynic effect ([6]; intrathecal, CCI animals): up to 1 h | minimum effective dose (MED) ([6]; intrathecal, CCI animals): 10 µg | duration of antiallodynic effect ([6]; intrathecal, CCI animals, listed as PD198306): 1 h

O=S(=O)(NOCC1CC1)c1ccc(F)c(F)c1Nc1ccc(I)cc1Cl [PD 0297447, 2-(2-Chloro-4-iodo-phenylamino)-N-cyclopropylmethoxy-3,4-difluoro-benzenesulfonamide]
IC50 [1]: 965 nM | IC50 [2]: 965 nM | effect on static allodynia ([3]; intrathecal 30µg): had no significant effect

CC(C)C[C@H](CN)CC(=O)O [pregabalin, reference compound]
streptozocin-induced static allodynia [4, 7]: significantly blocked | streptozocin-induced static allodynia [5, 7]: significantly blocked | CCI-induced static allodynia [6, 7]: significantly blocked | magnitude of the antiallodynic effect [3]: similar

From EP1202724B1, “METHOD FOR TREATING CHRONIC PAIN USING MEK INHIBITORS” (WARNER-LAMBERT COMPANY, priority 1999, dated 2001)
